Measured values from US4892813A, “Method for the determination of the enzymatic activity of convertase” (Centre National de la Recherche Scientifique, priority 1987, dated 1990).
Values belong to the substance of their own block, whether it stands above or below them. Where no end group is shown, it is not given here.

How the values were obtained:
Format in all cases: biochemical, rat
[1] = system: somatostatin convertase; assay: Conversion of iodine-125-labeled peptide I by brain extracts, specific activity (% of peptide II generated); conditions: molecular sieve fraction, peptide I (20,000 cpm), 2 hours, % of starting materials
Protocol: (§1) Male Wistar rats (100-120 g) were sacrificed by quick decapitation and the cerebral cortex was removed immediately. The fresh dissected tissue was homogenized in a Potter Elvehjem apparatus in a buffer solution of phosphate (pH 7.4) at a concentration of 50 mM and potassium chloride at a concentration of 200 mM (5 ml of buffer per cortex).
(§2) The extract was then centrifuged at 3000×g for 15 minutes and the supernatant was filtered on a Sephadex G-150 column in 0.25M Tris-HCl (pH 7).
(§3) The proteolytic activities were tested in the following way. The peptide I labeled with iodine 125 (20,000 cpm), dissolved in 10 μl of 250 mM Tris-HCl (pH 7), was incubated at 37° C. with an aliquot either of crude extract of rat cerebral cortex or of fractions derived from gel filtration or derived from ion exchange chromatography (final volume of 300 μl in 0.25M Tris-HCl (pH 7)).
(§4) 50 μl samples of the mixture were taken at different times during the reaction and the reaction was stopped by the addition of 600 μl of CM-52 resin in 30 mM ammonium acetate (pH 6) (1:10, vol./vol.). The mixture was then centrifuged at 10,000×g for 30 seconds on a Beckman microcentrifuge. […] After the second washing by elution at each of its saline concentrations, the iodinated products retained on the resin were counted.
(§5) The results were calculated as follows: [formula] where the specific activity represents the percentage of peptides II generated, the undesirable activity represents the percentage of Asn-^125 I-Tyr(NH2) generated, t is the total cpm in 50 μl of the mixture, x1 is the cpm found after washing with the 30 mM ammonium acetate, x2 is the cpm found after washing with the 100 mM ammonium acetate, and y1 and y2 are the cpm values found respectively after the 30 mM and 100 mM washings of the resin with the peptide I by itself.
(§6) The extracts were obtained from three regions of the brain and were fractionated by filtration on a molecular sieve. A 50 μl aliquot corresponding to an activity peak was incubated with the peptide I (20,000 cpm) for 2 hours and the products were analyzed by ion exchange.

[2] = system: undesirable activity; assay: Conversion of iodine-125-labeled peptide I by brain extracts, undesirable activity (% of Asn-^125 I-Tyr(NH2) generated); conditions: molecular sieve fraction, peptide I (20,000 cpm), 2 hours, % of starting materials
Protocol: as §1, §2, §3, §4, §5, §6

[3] = system: somatostatin convertase; assay: Competition of peptides with iodinated peptide I in the enzymatic conversion by somatostatin convertase; conditions: 1 μl of each peptide or 2 μg of somatostatin 28; ^125 I peptide I (30,000 cpm), pH 7, 37° C., 2 hours; 0% = maximum conversion of peptide I to peptide II
Protocol: The ability of several analogous peptides to compete with the peptide I in the enzymatic conversion was evaluated by means of competition experiments. The results given in the table which follows indicate that either the peptide of 28 AA (S-28) or the noniodinated substrate of II AA (deiodinated peptide I) competed effectively (75% and 85% respectively) with the iodinated peptide I. It is interesting to observe that simple replacement of Lys with Arg in the dibasic doublet (cleavage site) produced a peptide III, which competed with the iodinated substrate (peptide I) with an efficacy of only 30%.
The enzyme prepared from the Sephadex G150 column was incubated in a
mixture containing either 1 μl of each of the peptides described above
or 2 μg of somatostatin 28 and ^125 IPeptide I (30,000 cpm) in a
buffer solution of TrisHCl (pH 7) at 37° C. for 2 hours. 0%
inhibition corresponds to a maximum conversion of the peptide I to the […]

% of products generated, Peptide II labeled with 125I ([1]; Hypothalamus extract): 7%
% of products generated, Peptide II labeled with 125I ([1]; Neocortex extract): 18%
% of products generated, Peptide II labeled with 125I ([1]; Pituitary gland extract): 20%
Substance: Ala-Gly-Ala-Lys-Asn-Tyr(NH2)* [Peptide II]

Substance: Asn-^125 I-Tyr(NH2)
% of products generated, Asn-^125 I-Tyr(NH2) ([2]; Hypothalamus extract): 90%
% of products generated, Asn-^125 I-Tyr(NH2) ([2]; Neocortex extract): 40%
% of products generated, Asn-^125 I-Tyr(NH2) ([2]; Pituitary gland extract): 37%

% inhibition of the conversion activity (competition with iodinated peptide I) [3]: 85%
Substance: PRERKAGAKNY-NH2 [De^125 IPeptide I]

Substance: Somatostatin 28: direct precursor of somato 14, a peptide consisting of 28 AA [reference compound]
% inhibition of the conversion activity (competition with iodinated peptide I) [3]: 75%
